Laboratory results as given in patent publication US20040033555A1 (priority 2003, published 2004).
Read-outs that look alike come from different tables or passages of the source.

Tests used:
[1] = test system: Magnaportha grisea; conditions: 5 ppm, systemic application to media prior to seeding, Eragrostis curvula, M. grisea strain expressing a FP
[2] = test system: Phytophthora infestans; assay type: in vivo; conditions: preventative foliar spray, tomato; for % Disease Area, Photon Imaging: chlorophyll fluorescence; for % Disease Area, Visual Scoring: scored by eye
[3] = test system: Erysiphe graminis f sp. hordei; assay: Preventative control of powdery mildew on barley, % disease area by visual scoring and by photon imaging (fluorescein diacetate fluorescence); assay type: in vivo; conditions: preventative foliar spray; for % Disease Area, Photon Imaging: FDA fluorescence; for % Disease Area, Visual Scoring: scored by eye
Method: Barley plants (Hordeum vulgari, cv. Boone) are cultivated either as single or multiple plants per plant growth unit, typically in a 2.54 cm by 2.54 cm pot of soil. Plants are grown in an environmentally regulated growth chamber at 20° C. and 70% humidity. The plants are approximately 7 days old at the time of application of the plant treatment agent. Single plant units are sprayed with fungicide standards or experimental plant treatment agents to the point of run-off.
Twenty-four hours following application of the plant treatment agent the barley plants are subsequently inoculated with spores of a fungal plant pathogen and incubated under the appropriate conditions for a period sufficient to allow the development of visible disease symptoms.
Inoculation with powdery mildew is with a spore suspension of Erysiphe graminis f. sp. hoerdei, (the causal agent of barley powdery mildew). Powdery mildew-inoculated plants are placed in a dry area for 4 hours following inoculation and are subsequently grown for an additional seven days at 20° C. and 65% humidity. Powdery mildew-infected plants are 15 days old at the time of rating of disease.
For the determination of the % disease area for a sample, a binary image is generated which defined the area of pixels associated with a LGM for each object in the field of view. The percent disease area is calculated by dividing the pixel number for the LGM area by the pixel number for the sample area. For the detection of a LGM endogenous to the plant substrate, an additional step of subtracting the fluorescence area from the total leaf area and then dividing by the total leaf area is required for the percent disease area calculation.
The effectiveness of a plant treatment agent on plants infected with a disease organism is determined by treating the test unit with a pro-LGM and detecting photon emission. Barley plants cultivated as described above are given 125 μL spray applications of a preventative treatment containing 40, 5, 1, 0.4 and 0.2 ppm flusilazole. The plant treatment agent is formulated by resuspending the appropriate amount of the dried compound in 6 μL of DMSO with shaking overnight, followed by the subsequent addition of 570 μL of a 50/50 Acetone/Water-Trem solution, yielding the desired final concentration. The Water-Trem contains 18 drops of the Trem® 014 surfactant (Henkel Corp, Amber, Pa.) per L of water. The formulated plant treatment agent is applied as a foliar spray application. In this example, a microsprayer apparatus (U.S. Patent Application No. 60/172,928) applying a fine aerosol mist from the tip of an ultrasonic nebulizer, with air assist, to a rotating electrostatically charged perpendicular plant target is employed.
Twenty-four hours following application of the plant treatment agent the barley plants are subsequently inoculated with a suspension of powdery mildew (Erysiphe graminis f sp. hordei) spores, and incubated under the appropriate conditions for a period sufficient to allow the development of visible disease symptoms, as described above. Untreated plants are also infected at this time for the production of untreated, infected controls. Untreated, uninfected control plants are also generated in parallel.
Plants to be rated for fungicide activity are first scored visually by eye for % disease coverage. The same samples are subsequently treated with the pro-LGM fluorescein diacetate. The FDA is formulated in a stock solution at 1 mg FDA/mL acetone. A final working solution is formulated which contains 5 μg/mL fluorescein diacetate and 0.005% Trem® 014. The FDA working solution is applied by spraying the sample using a Preval® sprayer (Precision Valve Corporation, Yonkers, N.Y.) with sufficient solution to wet all surfaces. Care must be taken not to allow access of FDA to leaves with cuts or abraded surfaces. […]

Cc1cccc2sc3nncn3c12 [tricyclazole]
FP fluorescence relative to untreated, inoculated control [1]: reduced fluorescence

COCC(=O)N(c1c(C)cccc1C)C(C)C(=O)OC (centres unmarked) [Ridomil]
% Disease Area, Photon Imaging ([2]; 1 ppm): 60% | % Disease Area, Visual Scoring ([2]; 1 ppm): 53% | % Disease Area, Photon Imaging ([2]; 5 ppm): 10% | % Disease Area, Visual Scoring ([2]; 5 ppm): 24% | % Disease Area, Photon Imaging ([2]; 20 ppm): 2% | % Disease Area, Visual Scoring ([2]; 20 ppm): 3%

C[Si](Cn1cncn1)(c1ccc(F)cc1)c1ccc(F)cc1 [flusilazole]
% Disease Area, Photon Imaging ([3]; 0.2 ppm): 64% | % Disease Area, Visual Scoring ([3]; 0.2 ppm): 52% | % Disease Area, Photon Imaging ([3]; 0.4 ppm): 27% | % Disease Area, Visual Scoring ([3]; 0.4 ppm): 19% | % Disease Area, Photon Imaging ([3]; 1 ppm): 24% | % Disease Area, Visual Scoring ([3]; 1 ppm): 7% | % Disease Area, Photon Imaging ([3]; 5 ppm): 13% | % Disease Area, Visual Scoring ([3]; 5 ppm): 1% | % Disease Area, Photon Imaging ([3]; 40 ppm): 0% | % Disease Area, Visual Scoring ([3]; 40 ppm): 0%
